Key:
[1] = tested on: lethal effects of Adrenaline; experiment: Adrenolytic activity "in vivo": protection against the lethal effects of Adrenaline (Luduena et al.); conditions: Rattus norvegicus, po; rats, os, 60 minutes before 200 mcg/Kg Adrenaline endovenous; read-out: ID50 (dose protecting 50% of the animals from the lethal effects of Adrenaline)
Description: (§1) For the adrenolytic activity "in vivo" the method of Luduena et al. (Arch. int. Pharmacodyn., 122, 111, 1959) has been used, based on the evaluation of the protective action of the adrenolytic compounds against the lethal effects of Adrenaline.
(§2) The drugs under examination are administered by the endovenous route dissolved in water, and by the oral route they are dissolved or suspended in 5% arabic gum, respectively at 5 and 60 minutes before a fixed dose of 200 mcg/Kg of Adrenaline by the endovenous route.
(§3) Always 10 rats have been employed per group.
(§4) The activity of the drug is expressed as the dose protecting 50% of the animals from the lethal effects of Adrenaline administered by the endovenous route (ED50).

[2] = Therapeutic index (LD50/ID50), oral; conditions: in vivo, os, LD50 in mice, ID50 in rats
Description: as §1, §2, §3, §4
(§5) In order to evaluate the toxicity of the drugs under examination, increasing doses are administered to groups of 5-10 mice which are then followed for a period of 7 days.
(§6) For administration by the oral route, the compounds are dissolved or suspended, according to the solubility, in 5% arabic gum. The LD50 expresses the dose of drug which causes the death of 50% of the animals.

[3] = Toxicity: LD50 by the oral route, 7 days follow-up; conditions: mouse, in vivo, mice, os, followed for 7 days
Description: as §5, §6

[4] = tested on: contractions caused by Adrenaline in seminal small bladder of Guinea-pig; experiment: Adrenolytic activity "in vitro": inhibition of contractions induced by Adrenaline in isolated seminal small bladder; conditions: Tyrode, 38°C, 3 minutes of contact, 1 mcg/ml Adrenaline
Description: The adrenolytic activity of the new esters has been studied in comparison with that of Nicergoline [1,6-dimethyl-8β-(5'-bromonicotinoyloxymethyl)-10α-methoxyergoline] and of dihydroergotamine. The activity "in vitro" has been determined employing seminal small bladder of Guinea-pig immersed in Tyrode liquid wherein oxygen and 5% carbon dioxide are bubbled.
The bath temperature is maintained constant at 38°C. The contractions induced by Adrenaline are registered on a chimograph by means of an isotonic lever. The activity of the drug under examination is expressed as the concentration in mcg/ml able, after 3 minutes of contact, to inhibit 50% of the contractions caused by 1 mcg/ml of Adrenaline (IC50).

[5] = Pharmacological activity of intermediates, general statement

Compound | ED50 [1] [mg/kg] | selectivity ratio [2] | LD50 at 168 h [3] [mg/kg] | IC50 (concentration inhibiting 50% of the contractions caused by 1 mcg/ml of Adrenaline) [4] [ng/mL] | pharmacological activity [5]
CO[C@]12C[C@@H](CCOC(=O)c3c(C)cc(C)n3C)CN(C)[C@@H]1Cc1cn(C)c3cccc2c13 [1,6-Dimethyl-8β-[1',3',5'-trimethyl-2'-pyrroyloxyethyl]-10α-methoxyergoline] | 0.1 | 1300 | 100 |  | 
CCn1cccc1C(=O)OCC[C@H]1CN(C)[C@@H]2Cc3cn(C)c4cccc(c34)[C@@]2(OC)C1 [1,6-Dimethyl-8β-[1'-ethyl-2'-pyrroyloxyethyl]-10α-methoxyergoline] | 0.025 | 5200 | 180 |  | 
CO[C@]12C[C@@H](CCOC(=O)c3cc[nH]c3C)CN(C)[C@@H]1Cc1cn(C)c3cccc2c13 [1,6-Dimethyl-8β-[2'-methyl-3'-pyrroyloxy-ethyl]-10α-methoxyergoline] | 0.1 | 1300 | 100 | 1 | 
CO[C@]12C[C@@H](CCOC(=O)c3ccc[nH]3)CN(C)[C@@H]1Cc1cn(C)c3cccc2c13 [1,6-Dimethyl-8β-[2'-pyrroyloxyethyl]-10α-methoxyergoline] | 0.06 | 6600 | 450 |  | 
CO[C@]12C[C@@H](CCOC(=O)c3[nH]c(C)cc3C)CN(C)[C@@H]1Cc1cn(C)c3cccc2c13 [1,6-Dimethyl-8β-[3',5'-dimethyl-2'-pyrroyloxyethyl]-10α-methoxyergoline] | 0.12 | 3750 | 300 |  | 
CO[C@]12C[C@@H](CCO)CN(C)[C@@H]1Cc1cn(C)c3cccc2c13 [(V), 1,6-Dimethyl-8β-hydroxyethyl-10α-methoxyergoline] |  |  |  |  | slight pharmacological activity
CN1C[C@H](C(=O)N[C@]2(C)O[C@@]3(O)[C@@H]4CCCN4C(=O)[C@H](Cc4ccccc4)N3C2=O)C[C@@H]2c3cccc4[nH]cc(c34)C[C@H]21 [Dihydroergotamine, reference compound] | 15 |  |  | 15 | 
CO[C@]12C[C@@H](COC(=O)c3cncc(Br)c3)CN(C)[C@@H]1Cc1cn(C)c3cccc2c13 [Nicergoline, 1,6-dimethyl-8β-(5'-bromonicotinoyloxymethyl)-10α-methoxyergoline, reference compound] | 7 | 90 | 632 | 1 | 
